Laboratory results taken from the NIST ThermoML archive (doi:10.1016/j.jct.2016.11.007).
± gives the expanded uncertainty stated by the source.

Assay: mn = molality of the nth substance listed, in mol/kg
Conditions: Liquid, Alternating current cell with electrodes

OB(O)O [boric acid] + O
Conditions | electrical conductivity [S/m]
298.15 K, 19767 kPa, m1 = 0.000461 | 2.9e-05 ± 2.2e-05
298.15 K, 19767 kPa, m1 = 0.001034 | 4.34e-05 ± 2.2e-05
298.15 K, 19767 kPa, m1 = 0.002214 | 7.29e-05 ± 2.2e-05
298.15 K, 19767 kPa, m1 = 0.003558 | 8.46e-05 ± 2.3e-05
298.15 K, 19767 kPa, m1 = 0.006801 | 0.000104 ± 2.3e-05
298.15 K, 19767 kPa, m1 = 0.01448 | 0.000141 ± 1.5e-05
298.15 K, 19767 kPa, m1 = 0.03227 | 0.000203 ± 2.9e-05
298.15 K, 19767 kPa, m1 = 0.05626 | 0.000261 ± 5e-05
298.15 K, 19767 kPa, m1 = 0.1313 | 0.000513 ± 3.1e-05
373.33 K, 19683 kPa, m1 = 0.002216 | 0.000155 ± 9.3e-06
373.33 K, 19683 kPa, m1 = 0.01449 | 0.000175 ± 3.5e-05
373.33 K, 19683 kPa, m1 = 0.02381 | 0.000262 ± 1.6e-05
373.33 K, 19683 kPa, m1 = 0.04334 | 0.000409 ± 2.5e-05
373.33 K, 19683 kPa, m1 = 0.07421 | 0.000597 ± 3.6e-05
448.23 K, 19666 kPa, m1 = 0.0004623 | 0.000302 ± 1.8e-05
448.23 K, 19666 kPa, m1 = 0.00294 | 0.000347 ± 2.1e-05
448.23 K, 19666 kPa, m1 = 0.00873 | 0.000421 ± 2.5e-05
448.23 K, 19666 kPa, m1 = 0.01287 | 0.000473 ± 2.9e-05
448.23 K, 19666 kPa, m1 = 0.0243 | 0.00059 ± 3.6e-05
448.23 K, 19666 kPa, m1 = 0.03791 | 0.000706 ± 4.2e-05
448.23 K, 19666 kPa, m1 = 0.07013 | 0.000939 ± 5.7e-05
448.23 K, 19666 kPa, m1 = 0.1015 | 0.00114 ± 6.8e-05
523.32 K, 19674 kPa, m1 = 0.0005523 | 0.000382 ± 2.3e-05
523.32 K, 19674 kPa, m1 = 0.001757 | 0.000393 ± 2.4e-05
523.32 K, 19674 kPa, m1 = 0.004534 | 0.000408 ± 2.4e-05
523.32 K, 19674 kPa, m1 = 0.009517 | 0.000445 ± 2.7e-05
523.32 K, 19674 kPa, m1 = 0.02168 | 0.000515 ± 3.1e-05
523.32 K, 19674 kPa, m1 = 0.04237 | 0.000632 ± 3.8e-05
523.32 K, 19674 kPa, m1 = 0.07216 | 0.00078 ± 4.7e-05
523.32 K, 19674 kPa, m1 = 0.1017 | 0.000922 ± 5.5e-05
547.2 K, 20900 kPa, m1 = 0.0009361 | 0.000382 ± 2.3e-05
547.2 K, 20900 kPa, m1 = 0.002371 | 0.000395 ± 2.4e-05
547.2 K, 20900 kPa, m1 = 0.003744 | 0.000405 ± 2.5e-05
547.2 K, 20900 kPa, m1 = 0.00586 | 0.000419 ± 2.6e-05
547.2 K, 20900 kPa, m1 = 0.008845 | 0.000439 ± 5.1e-05
547.2 K, 20900 kPa, m1 = 0.01163 | 0.000459 ± 5.2e-05
547.2 K, 20900 kPa, m1 = 0.01515 | 0.000481 ± 5.1e-05
547.2 K, 20900 kPa, m1 = 0.02429 | 0.000535 ± 3.2e-05
548.35 K, 19600 kPa, m1 = 0.0008359 | 0.000374 ± 2.5e-05
548.35 K, 19600 kPa, m1 = 0.002368 | 0.000385 ± 2.5e-05
548.35 K, 19600 kPa, m1 = 0.005537 | 0.000406 ± 2.7e-05
548.35 K, 19600 kPa, m1 = 0.01208 | 0.000447 ± 2.7e-05
548.35 K, 19600 kPa, m1 = 0.02063 | 0.000495 ± 3e-05
548.35 K, 19600 kPa, m1 = 0.0288 | 0.000538 ± 3.2e-05
548.35 K, 19600 kPa, m1 = 0.04625 | 0.000617 ± 3.7e-05
548.35 K, 19600 kPa, m1 = 0.1015 | 0.000921 ± 5.5e-05
571.07 K, 19463 kPa, m1 = 0.000429 | 0.000323 ± 2.2e-05
571.07 K, 19463 kPa, m1 = 0.001139 | 0.000331 ± 2.2e-05
571.07 K, 19463 kPa, m1 = 0.004203 | 0.00035 ± 2.3e-05
572.82 K, 20769 kPa, m1 = 0.0002704 | 0.000339 ± 2.1e-05
572.82 K, 20769 kPa, m1 = 0.0005746 | 0.000349 ± 2.1e-05
572.82 K, 20769 kPa, m1 = 0.001483 | 0.000358 ± 2.2e-05
572.82 K, 20769 kPa, m1 = 0.00287 | 0.000369 ± 2.2e-05
572.82 K, 20769 kPa, m1 = 0.006337 | 0.000389 ± 2.3e-05
572.82 K, 20769 kPa, m1 = 0.01032 | 0.000414 ± 2.5e-05
572.82 K, 20769 kPa, m1 = 0.01719 | 0.000445 ± 2.7e-05
572.82 K, 20769 kPa, m1 = 0.0361 | 0.000516 ± 3.1e-05
572.82 K, 20769 kPa, m1 = 0.05276 | 0.000569 ± 3.4e-05
597.9 K, 20618 kPa, m1 = 0.0004999 | 0.000217 ± 2.6e-05
597.9 K, 20618 kPa, m1 = 0.0008991 | 0.000223 ± 2.7e-05
597.9 K, 20618 kPa, m1 = 0.001756 | 0.000227 ± 2.7e-05
597.9 K, 20618 kPa, m1 = 0.003156 | 0.000233 ± 2.8e-05
597.9 K, 20618 kPa, m1 = 0.00593 | 0.000242 ± 2.9e-05
597.9 K, 20618 kPa, m1 = 0.01032 | 0.000257 ± 3.1e-05
597.9 K, 20618 kPa, m1 = 0.02561 | 0.000303 ± 3.6e-05
621.13 K, 20620 kPa, m1 = 0.0003582 | 0.000117 ± 1.4e-05
621.13 K, 20620 kPa, m1 = 0.0009385 | 0.000117 ± 1.4e-05
621.13 K, 20620 kPa, m1 = 0.002851 | 0.00012 ± 1.4e-05
621.13 K, 20620 kPa, m1 = 0.00498 | 0.000125 ± 1.5e-05
621.13 K, 20620 kPa, m1 = 0.01107 | 0.000138 ± 1.7e-05
621.13 K, 20620 kPa, m1 = 0.01908 | 0.000161 ± 1.9e-05
